# Data taken from article PMC5920042, “KH176 Safeguards Mitochondrial Diseased Cells from Redox Stress-Induced Cell Death by Interacting with the Thioredoxin System/Peroxiredoxin Enzyme Machinery” (Scientific Reports, 2018).
# pEC50, pIC50, pKd: −log10 of the molar value. Several values for one entry are separate records, joined by “and”; a condition that tells them apart may be missing. Identical values can stand only once.
# Tests used:
# P4 cell line [1] = assay: Redox Stress Survival assay (BSO-induced cell death, Calcein AM viability); assay type: cell-based, human
# Procedure: Cells were seeded at a density of 4 × 10^3 cells/well into 96-wells black plates and incubated for 24 h. To induce redox stress, semi-logarithmic dilutions of buthionine sulphoximine (BSO, #B2515, Sigma Aldrich) up to 100 µM were added to the cells in culture medium and incubated for 24 h. Cell viability was assessed by quantification of cellular conversion of Calcein AM into fluorescent Calcein. Briefly, after having discarded the BSO containing medium, cells were washed once with M199 without phenol red and loaded with 2 µM Calcein AM (#65-0853-39, Affimetrix eBioscience) in M199 without phenol red for 25 min. At the end of the incubation period, the excess of the dye was washed with M199 without phenol red and Calcein fluorescence was measured with a scanning microplate reader (BMG FLUOstar Omega; Ex. 480 nm, Em. 520 nm). For compound screening and target identification measurements cells were treated with 200 µM BSO alone or in co-incubation with semi-logarithmic dilutions of the test compound. Additionally, where indicated, increasing doses of Auranofin (AFN, #BML-EI206-0100, Enzo) or Aurothioglucose (ATG, #A0606, Sigma Aldrich) were co-incubated with BSO and the test compound. In all cases, cell viability was assessed 24 h after the treatment.
# [2] = tested on: primary human skin fibroblasts; assay: Mitochondrial superoxide detection by mitoSOX oxidation; assay type: cell-based; settings: 30 min preincubation, no external stimulus; read-out: IC50 mitochondrial superoxide levels (mitoSOX)
# Procedure: The cells were seeded at a density of 3 × 10^3 cells/well into 96-wells black plates. After 24 h, the cells were incubated with different amounts of KH176(m) in M199 without phenol red. This medium was used in all subsequent washes and incubations. After 30 min. incubation the cells were washed and subsequently incubated 1 µM mitoSOX (#M36008, ThermoFisher). […] After 10 min incubation the cells were washed twice and incubated for 30 min. to allow the accumulation of oxidized mitoSOX in the mitochondria. […] Wells with cells but without mitoSOX were used for background correction. Experiments were performed at least three times with 3 wells per experiment.
# P4 cell line [3] = assay: GSH measurements (GSH-Glo) under BSO; assay type: cell-based, human; settings: increasing BSO 24 h, 1 µM compound
# Procedure: Cells were seeded at a density of 4 × 10^3 cells/well into 96-wells white plates (#655098, Greiner Bio-one). After 24 h the cells were treated with semi-logarithmic dilutions of BSO up to a concentration of 100 µM alone or in co-incubation with a fixed amount of the test compound. 24 h after the treatment, GSH levels were measured with the GSH-Glo™ Glutathione Assay (# V6911, Promega) according to the manufacturer instructions. Luminescence was measured on a scanning microplate reader (BMG FLUOstar Omega).
# human Prdx2 = target: T1, human Prdx2 (Homo sapiens, UniProt P32119); assay: Surface Plasmon Resonance binding; settings: immobilized Prdx2, SPR
# T1 construct: purchased Novus Biological NBC1-25855
# T1 sequence (P32119 1-198): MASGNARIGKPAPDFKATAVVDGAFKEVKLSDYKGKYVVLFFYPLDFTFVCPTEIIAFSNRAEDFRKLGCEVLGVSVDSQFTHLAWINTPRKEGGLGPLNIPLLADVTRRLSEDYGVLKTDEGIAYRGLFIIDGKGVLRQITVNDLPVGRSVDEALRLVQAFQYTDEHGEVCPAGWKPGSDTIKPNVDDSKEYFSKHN
# Procedure: Prior to protein immobilization all proteins were dialyzed against HBS-E (10 mM Hepes, 150 mM NaCl, 3 mM EDTA) buffer that was previously filtered through a 0.45 µM membrane using dialyze slide according to the manufacturer instruction. Human recombinant proteins peroxiredoxin 2 (Novus Biological NBC1-25855) and CCDC101 (Abcam Ab124547) were immobilized on CM5 (carboxymethylated dextran covalently attached to a gold surface) using the amine coupling method according to manufacturer’s recommendation (Biacore, GE Healthcare). Briefly the CM5 surface was activated with the mixture of EDC/NHS. Recombinant proteins at dilution 1 µg/ml in a corresponding buffer i.e. Peroxiredoxin 2 and CCDC101 in sodium acetate buffer 100 mM (pH 4.9). The control channel was activated with EDC/NHS. All channels were thereafter saturated with 0.1 M ethanolamine solution. KH176 andKH176m were solubilized in HBSS at stock solution 1 mM. They were thereafter further diluted in HBSS to final concentrations 0.31e-6M, 0.62e-6M, 1.25e-6M, 2.5e-6M and 5.0e-6M and injected over the flow cells at a flow rate equal to […] for 2 min, followed by a dissociation phase of 4 min. The sensor chip surface was regenerated with 1 mM HCl. The specific binding profiles were obtained after subtracting the response signal from the control empty channel and from blank-buffer injection. The specific binding was calculated using Biaeval 3 software (Biacore, GE Healthcare) with the postulate of 1:1 ligand/analyte interaction. Based on the Chi^2 value in regard to the Rmax (less than 10%) and the difference interval ±2.5 RU theoretic fitting compared to experimental results, best fitting algorithm between Langmuir or drifting base line was applied.
# [4] = 28-day repeat oral dose toxicity study, toxicokinetics; assay type: in vivo, Sprague Dawley rats; settings: rat
# Procedure: Pharmacokinetics and toxicokinetics measurements were performed by the commercial Contract Research Organizations Sai Life Sciences and WuXi AppTec, respectively, according to their standard protocols and in accordance with relevant guidelines and regulations. C57 BL/6 mice, Sprague Dawley rats, and Beagle dogs were studied.
# [5] = KH176 25 mg/kg/dose BID oral, F, Day 1, plasma
# [6] = KH176 25 mg/kg/dose BID oral, F, Day 28, plasma
# [7] = KH176 25 mg/kg/dose BID oral, M, Day 1, plasma
# [8] = KH176 25 mg/kg/dose BID oral, M, Day 28, plasma
# [9] = KH176 75 mg/kg/dose BID oral, F, Day 1, plasma
# [10] = KH176 75 mg/kg/dose BID oral, F, Day 28, plasma
# [11] = KH176 75 mg/kg/dose BID oral, M, Day 1, plasma
# [12] = KH176 75 mg/kg/dose BID oral, M, Day 28, plasma
# [13] = KH176 250 mg/kg/dose BID oral, F, Day 1, plasma
# [14] = KH176 250 mg/kg/dose BID oral, F, Day 28, plasma
# [15] = KH176 250 mg/kg/dose BID oral, M, Day 1, plasma
# [16] = KH176 250 mg/kg/dose BID oral, M, Day 28, plasma
smiles,measurement,setting,value
CC1=C(C)C(=O)C(CC[C@](C)(O)C(=O)N[C@@H]2CCCNC2)=C(C)C1=O [KH176m],pEC50,"P4 cell line [1]; P4 cells, 200 µM BSO, 24 h",7.42 and 7.41
same,Viability of patient cells under BSO,"P4 cell line [1]; increasing BSO 24 h, 1 µM compound",fully protected
same,pIC50,[2],5.85
same,GSH level under BSO,P4 cell line [3],remained unaffected
same,Binding to Prdx2,human Prdx2; 0.31-5.0 µM,dose-dependent binding
same,pKd,"human Prdx2; read-out: Affinity (Kd), Langmuir one site model",6.52
same,AUC0–24 h Ratio KH176m/KH176,"[4]; KH176 25 mg/kg/dose BID oral, F, Day 1",0.091
same,AUC0–24 h,[4]; [5],1140 ng·h/mL
same,Cmax,[4]; [5],85.9 ng/mL
same,T1/2,[4]; [5],4.5 h
same,AUC0–24 h Ratio KH176m/KH176,"[4]; KH176 25 mg/kg/dose BID oral, F, Day 28",0.074
same,AUC0–24 h,[4]; [6],1410 ng·h/mL
same,Cmax,[4]; [6],123 ng/mL
same,T1/2,[4]; [6],6.2 h
same,AUC0–24 h Ratio KH176m/KH176,"[4]; KH176 25 mg/kg/dose BID oral, M, Day 1",0.075
same,AUC0–24 h,[4]; [7],792 ng·h/mL
same,Cmax,[4]; [7],92.7 ng/mL
same,T1/2,[4]; [7],2.3 h
same,AUC0–24 h Ratio KH176m/KH176,"[4]; KH176 25 mg/kg/dose BID oral, M, Day 28",0.064
same,AUC0–24 h,[4]; [8],993 ng·h/mL
same,Cmax,[4]; [8],126 ng/mL
same,T1/2,[4]; [8],13.3 h
same,AUC0–24 h Ratio KH176m/KH176,"[4]; KH176 75 mg/kg/dose BID oral, F, Day 1",0.073
same,AUC0–24 h,[4]; [9],3090 ng·h/mL
same,Cmax,[4]; [9],203 ng/mL
same,T1/2,[4]; [9],30.9 h
same,AUC0–24 h Ratio KH176m/KH176,"[4]; KH176 75 mg/kg/dose BID oral, F, Day 28",0.067
same,AUC0–24 h,[4]; [10],5120 ng·h/mL
same,Cmax,[4]; [10],305 ng/mL
same,T1/2,[4]; [10],12.9 h
same,AUC0–24 h Ratio KH176m/KH176,"[4]; KH176 75 mg/kg/dose BID oral, M, Day 1",0.080
same,AUC0–24 h,[4]; [11],2640 ng·h/mL
same,Cmax,[4]; [11],187 ng/mL
same,T1/2,[4]; [11],3.5 h
same,AUC0–24 h Ratio KH176m/KH176,"[4]; KH176 75 mg/kg/dose BID oral, M, Day 28",0.067
same,AUC0–24 h,[4]; [12],3100 ng·h/mL
same,Cmax,[4]; [12],265 ng/mL
same,AUC0–24 h Ratio KH176m/KH176,"[4]; KH176 250 mg/kg/dose BID oral, F, Day 1",0.073
same,AUC0–24 h,[4]; [13],7630 ng·h/mL
same,Cmax,[4]; [13],415 ng/mL
same,AUC0–24 h Ratio KH176m/KH176,"[4]; KH176 250 mg/kg/dose BID oral, F, Day 28",0.071
same,AUC0–24 h,[4]; [14],17300 ng·h/mL
same,Cmax,[4]; [14],913 ng/mL
same,AUC0–24 h Ratio KH176m/KH176,"[4]; KH176 250 mg/kg/dose BID oral, M, Day 1",0.055
same,AUC0–24 h,[4]; [15],5170 ng·h/mL
same,Cmax,[4]; [15],312 ng/mL
same,T1/2,[4]; [15],104.4 h
same,AUC0–24 h Ratio KH176m/KH176,"[4]; KH176 250 mg/kg/dose BID oral, M, Day 28",0.066
same,AUC0–24 h,[4]; [16],10400 ng·h/mL
same,Cmax,[4]; [16],777 ng/mL
same,T1/2,[4]; [16],6.5 h
